Where “and” joins values, the source holds several entries; their conditions need not be identical. Identical values can stand only once. Like-named read-outs stand apart in the source and are kept apart here.
Experiments:
[1] = Brain pharmacokinetics and brain targeting of Ge in mice after i.v., i.n. and i.g. administration of Gardenia-Borneol co-compound; assay type: in vivo; details: for Kp / MRT last / Cmax / Tmax / AUC(0-t): mouse; for Kp: read-out: Te (brain/blood drug ratio); for MRT last / Cmax / Tmax / AUC0–120 / AUC(0-t): brain; for Cmax: 18 mg/kg gardenia extract + 18 mg/kg borneol; for AUC(0-t): read-out: AUC0–120 (converted)
Method: The relative brain targeted coefficient was Re, Re = AUCbrain (i.n./i.g.)/AUCbrain (i.v.) × 100%. The brain/blood drug ratio was Te, Te = AUCbrain/AUCblood × 100%. So the drug target index was DTI, DTI = Te(i.n. /i.g.)/Te(i.v). […] AUC0–120 was 37270.5 ± 4160.6, 32413.6 ± 4573.9 and 6440.1 ± 863.7 […] for i.v., i.n. and i.g., respectively.
(§1) The separation was carried out using a Diamonsil C18 column ([…], i.d., 5.0 μm) under the following chromatographic conditions: column temperature, 25 °C; sample injection volume, 20 μL; flow rate, 1.0 mL/min; detection wavelength, 238 nm; and mobile phase, acetonitrile-water(14:86).
(§2) 1% (v/v) of Tween-80 and 20% (v/v) ethanol were dissolved in physiological saline and used as the solvent for drugs. 1.2 g of borneol fine powder and 1.2 g gardenia extract were dissolved into 10 mL solvent, named as co-compound nasal drops. Dilute 0.3 mL of nasal drops precisely with 1% Tween 80-normal saline solution into 10 mL, filtrate by 0.22 μm filter, named as co-compound injection. Dilute 0.3 mL of nasal drops precisely with 1% Tween 80-normal saline solution into 10 mL, named as co-compound intragastric solution.
(§3) 120 mice were divided into 3 groups (A, B, C), equally and randomly, 40 for each group. Group A was injected 0.1 mL co-compound injection via the tail vein. Group B was treated 3 μL nasal drops with a soft PE polyethylene tube after anesthesia by ether steam. Group C was treated 0.1 mL co-compound intragastric solution. The doses chosen for the mice were 18mg/kg·d (borneol and gardenia extract, respectively), 3 times based on the doses for human beings. The blood samples were collected into heparinized tubes by pricking the eyeball. Then, mice were killed by decollation. The corresponding brains were also collected at 1, 3, 5, 10, 30, 60, 90 and 120 min after drug administration. The brains were accurately weighed, and plasma was obtained after centrifugation. The sample processing and determination were immediately made when plasma and brain tissue were obtained.
The brains were washed by normal saline to remove excess surface blood and were dried by filter paper. The bloodless brains were homogenized after mixing with normal saline solution 1.5 times to the weight. After centrifugation at 12,000 rpm for 5 min, 600 μL methanol (the brain homogenate was 300 μL) was added in the supernatant to precipitate proteins in the sample. After being vortexed for 1 min, the solution was centrifuged at 12,000 rpm for 5 min. Then, supernatant was removed and evaporated under air stream in a water bath at 60 °C. The residue was dissolved in 100 μL of methanol and vortexed for 30 s, centrifuged at 12,000 rpm for 5 min. 20 μL aliquot supernatant was injected into the HPLC system for analysis.

[2] = cited from earlier work
[3] = Plasma pharmacokinetics of Ge in mice after i.v., i.n. and i.g. administration of Gardenia-Borneol co-compound; assay type: in vivo; details: for bioavailability / Cmax / AUC(0-t) / MRT last / Tmax: mouse; for bioavailability: read-out: F (absolute bioavailability); for Cmax / AUC(0-t) / MRT last / Tmax: 18 mg/kg gardenia extract + 18 mg/kg borneol; for AUC(0-t): read-out: AUC0–120 (converted); for MRT last: read-out: MRT0–120 (converted)
Method: Non-compartmental analysis of pharmacokinetic data was performed by Kinetica 4.4 software. The absolute bioavailability was F, F = AUCblood (i.n./i.g.)/AUCblood (i.v.) × 100%.
as §1, §2, §3
Plasma sample (100 μL) was placed into a centrifuge tube. To precipitate proteins in the sample, 300 μL acetonitrile was added and vortexed for 1 min. After centrifugation at 10,000 rpm for 10 min, supernatant was removed and evaporated under air stream in a water bath at 60 °C. The residue was dissolved in 100 μL of methanol and vortexed for 30 s, centrifuged at 10,000 rpm for 10 min. 20 μL of supernatant was injected into the HPLC system for analysis.

[4] = octanol/water system; cited from earlier work
[5] = ICR, in vivo, po, 18 mg/kg, i.g.
[6] = ICR, inhaled or intranasal, 18 mg/kg, i.n.
[7] = inhaled or intranasal, plasma, i.n.

COC(=O)C1=CO[C@@H](O[C@@H]2O[C@H](CO)[C@@H](O)[C@H](O)[C@H]2O)[C@@H]2C(CO)=CC[C@H]12 [Ge, geniposide]
Kp ([1]; ICR, in vivo, i.g.): 0.0689 | Kp ([1]; ICR, in vivo, i.n.): 0.117 | MRT last ([1]; ICR, in vivo, iv, 18 mg/kg): 48.3 min | Kp ([1]; ICR, in vivo, iv, Te = AUCbrain/AUCblood × 100%): 0.115 | Cmax ([1]; ICR, in vivo, iv, i.v.): 1480 ± 145 ng/g | MRT last [1, 5]: 60 min | Tmax [1, 5]: 60 min | Cmax ([1]; ICR, in vivo, po, i.g.): 76.2 ± 22.1 ng/g | MRT last [1, 6]: 51.2 min | Tmax [1, 6]: 3 min | Cmax ([1]; ICR, inhaled or intranasal, i.n.): 747 ± 175 ng/g | AUC0–120 ([1]; i.g.): 6440.1 ± 863.7 ng·min/g | AUC0–120 ([1]; i.n.): 32413.6 ± 4573.9 ng·min/g | AUC0–120 ([1]; i.v.): 37270.5 ± 4160.6 ng·min/g | Re (relative brain targeted coefficient) ([1]; i.g. vs i.v.): 17.28% and 17.28 ^** % | brain peak concentration compared to the i.v. group ([1]; i.g. vs i.v.): 1/20 | DTI (drug target index) ([1]; i.n. vs i.v.): 1.02 | Re (relative brain targeted coefficient) ([1]; i.n. vs i.v.): 86.97% | brain peak concentration compared to the i.v. group ([1]; i.n. vs i.v.): up to 1/2 | DTI (drug target index) ([1]; i.v. (reference), DTI = Te(i.n./i.g.)/Te(i.v.)): 1 | Re (relative brain targeted coefficient) ([1]; i.v. (reference), Re = AUCbrain(i.n./i.g.)/AUCbrain(i.v.) × 100%): 100% | AUC(0-t) ([1]; in vivo, inhaled or intranasal, 18 mg/kg, i.n.): 540000 ng·h/mL | AUC(0-t) ([1]; in vivo, iv, 18 mg/kg, i.v.): 621000 ng·h/mL | AUC(0-t) ([1]; in vivo, po, 18 mg/kg, i.g.): 107000 ng·h/mL | Tmax ([1]; in vivo, po, i.g.): ~60 min | intranasal absorption coefficient (K) ([2]; Ge alone): 0.061 h⁻¹ | intranasal absorption coefficient (K) ([2]; Ge in Gardenia-Borneol co-compound): 0.11 h⁻¹ | Cmax in plasma relative to i.v. ([3]; i.g. vs i.v.): 1/20 | Cmax in plasma relative to i.v. ([3]; i.n. vs i.v.): up to 1/2 | bioavailability ([3]; in vivo, 18 mg/kg, i.g. vs i.v.): 28.8% | bioavailability ([3]; in vivo, 18 mg/kg, i.v. (reference), F = AUCblood(i.n./i.g.)/AUCblood(i.v.) × 100%): 100% | Cmax ([3]; in vivo, iv, plasma, i.v.): 42400 ± 6270 ng/mL | AUC(0-t) ([3]; in vivo, iv, plasma, i.v.): 5410 ng·h/mL | MRT last ([3]; in vivo, iv, plasma, i.v.): 15 min | Tmax ([3]; in vivo, po, 18 mg/kg, plasma, i.g.): ~30 min | Cmax ([3]; in vivo, po, plasma, i.g.): 1910 ± 327 ng/mL | AUC(0-t) ([3]; in vivo, po, plasma, i.g.): 1560 ng·h/mL | MRT last ([3]; in vivo, po, plasma, i.g.): 42 min | Cmax [3, 7]: 21900 ± 5400 ng/mL | Tmax [3, 7]: 1 min | AUC(0-t) [3, 7]: 4620 ng·h/mL | MRT last [3, 7]: 31.7 min | bioavailability ([3]; plasma, other: i.n. (nasal drops), 18 mg/kg, i.n. vs i.v.): 85.4% | log p [4]: −0.97

Source: PMC3509570, “Bioavailability and Brain-Targeting of Geniposide in Gardenia-Borneol Co-Compound by Different Administration Routes in Mice” (International Journal of Molecular Sciences, 2012)
